Converted amounts (≈) assume the structure as drawn. “Also recorded” adds a separate entry of the source.
Legend:
K-ras NRK cells = assay: Propagation inhibitory effect on K-ras NRK cells; type: cell-based; conditions: Rattus norvegicus, 72 h, 3 days, read-out: IC50, cell propagation
Description: (§1) Next, cells of different types were inoculated in wells of 12 wells plastic plate (Costar 3521, manufactured by Costar) at 2.0×10^4 /DMEM 1 ml/well, and the plate was incubated in an incubator of 5% CO2 for one day. III-121C was added to the thus incubated cells to different concentrations and incubation was continued for another 3 days. The number of cells was measured by repeating the above-described procedure to determine the concentration (IC50) of the III-121C required to inhibit the cell propagation to 50%.

K-ras^ts-NRK cells [1] = assay: Effect on production of actin filaments, K-ras^ts-NRK cells; type: cell-based, rat; conditions: 1 μg/ml, one day
Description: (§2) A cover glass with a diameter of 18 mm (manufactured by Matsunami Glass Industry K.K.) that had been washed with 100% ethanol, dried, and sterilized was placed in wells of 12 wells plastic plate, and the cells were inoculated in the wells at 3.0×10^4 /DMEM 1 ml/well. The plate was incubated in an incubator of 5% CO2 for 1 day. To the thus incubated cell culture was added 1 μg/ml of III-121C, and the incubation was continued for another one day. The cell culture was then fixed with paraformaldehyde. The fixed cell culture was reacted with rhodamine pharoidine reagent (Molecular Probe Inc.) to examine the cell morphology by fluorescence microscope with G filter (excitation, 546 nm).

H-ras-NIH 3T3 cells = assay: Activity to induce changes in cell morphology, H-ras-NIH 3T3 cells; type: cell-based, mouse; conditions: 0.3 μg/ml, 2 days
Description: (§3) Normal rat kidney cell, NRK-49 (Dainihon Pharmaceutical K.K.) and normal mouse cell, NIH 3T3 (JCRB Cell Bank); and K-ras NIH 3T3, H-ras NIH 3T3, and N-ras NIH 3T3 (Tokyo University, Medical Science Institute, Japan) which are cell lines that have been transformed with Kirsten sarcoma virus, Harvey sarcoma virus, and neuroblastoma virus, respectively, were incubated at 37° C. in the similar manner.
(§4) The effect of the III-121C on various types of cultured cells was evaluated by inoculating each type of cells in wells of 24 wells plastic plate (Costar 3524, manufactured by Costar) at 3×10^4 cells/1 ml medium/well; incubating the plate in an incubator of 5% CO2 for one day; and adding the III-121C sample to the cell cultures to observe the cell morphology for another two days.
(§5) K-ras-NIH 3T3 and H-ras-NIH 3T3 are transformed cell lines, and the cells are elongated with projections or processes on their surface, and grow atop the other. N-ras-NIH 3T3 cells are also elongated and their projections or processes are even longer.

K-ras-NRK cells [2] = assay: Action mechanism: flow-cytometric DNA content analysis of K-ras-NRK cells; type: cell-based, rat; conditions: 24 hours; III-121C 0.3 and 1 μg/ml, vinblastine 0.1 μg/ml (FIG. 11)
Description: FIGS. 11(a) to (d) are graphs showing the results of flow-cytometric analysis wherein the number of cells is depicted in relation to their DNA content, upon addition of no reagent (FIG. 11(a)), 0.3 μg/ml of III-121C (FIG. 11(b)), 1 μg/ml of III-121C (FIG. 11(c)), and 0.1 μg/ml of vinblastine (FIG. 11(d)) to the K-ras NRK cell culture.
To the cells of K-ras-NRK in their propagation was added either one of III-121C and vinblastine. No reagent was added to the control cells. After 24 hours from the addition, the cells were fractionated with a cell sorter to examine the DNA quantity in relation to the number of the cells.

K-ras^ts-NRK cells [3] = assay: Activity to induce changes in cell morphology, K-ras^ts-NRK cells; type: cell-based, rat; conditions: 2 days
Description: as §3, §4

K-ras-NRK cells [4] = assay: Effect on production of actin filaments, K-ras-NRK cells; type: cell-based, rat; conditions: 1 μg/ml, one day
Description: as §2

NRK cells = assay: Propagation inhibitory effect on NRK cells; type: cell-based; conditions: Rattus norvegicus, 72 h, 3 days, read-out: IC50, cell propagation
Description: as §3, §1

N-ras-NIH 3T3 cells [5] = assay: Activity to induce changes in cell morphology, N-ras-NIH 3T3 cells; type: cell-based, mouse; conditions: 0.3 μg/ml, 2 days
Description: as §3, §4, §5

N-ras-NIH 3T3 cells [6] = assay: Propagation inhibitory effect on N-ras-NIH 3T3 cells; type: cell-based; conditions: Mus musculus, NIH3T3, 72 h; N-ras-NIH 3T3, 3 days; read-out: IC50, cell propagation
Description: as §3, §1

RSV^ts-NRK cells = assay: Activity to induce changes in cell morphology, RSV^ts-NRK cells; type: cell-based, rat; conditions: 0.3 μg/ml, 2 days
Description: as §3, §4
RSV^ts -NRK is a cell line that had been transformed with an src oncogene, and is temperature sensitive as in the case of K-ras^ts -NRK.

K-ras-NRK cells [7] = assay: Activity to induce changes in cell morphology, K-ras-NRK cells; type: cell-based, rat; conditions: 0.3 μg/ml, 2 days
Description: as §4
K-ras-NRK is a transformed cell line, and the cells appear round with its central portion raised.

K-ras^ts-NRK cells [8] = assay: Action mechanism: morphology / M phase observation in K-ras^ts-NRK cells; type: cell-based, rat
Description: Before the addition of the III-121C, the cells grew atop the other and had projections or processes on their surface (FIG. 9(a)).
The procedure as described above was repeated by replacing the III-121C with 0.1 μg/ml of vinblastine, 0.1 μg/ml of vincristine and 0.1 μg/ml of colchicine, which are known as microtubule formation inhibitors.

K-ras-NIH 3T3 cells = assay: Effect on production of actin filaments, K-ras-NIH 3T3 cells; type: cell-based, mouse; conditions: 1 μg/ml, one day
Description: as §2

CCC12CC(C(=O)OC)=C3Nc4cc5c(cc4C34CCN(CC3OC31)C42)C1C(O5)C(O)C2(CC)CC(C(=O)OC)=C3Nc4c(cc(O)c(OC)c4OC)C34CCN1C42 (stereo not shown) [III-121C]
IC50 (K-ras NRK cells): 0.4 µg/mL (≈ 0.503 µM)
actin filaments / cell morphology (K-ras^ts-NRK cells [1]): morphology of normal cells with longitudinally extending linear actin filaments
change in cell morphology and growth habits (H-ras-NIH 3T3 cells): the cells changed their morphology and growth habits to those of normal NIH 3T3 cells, and became flat with an increased area of contact
cell cycle / cell division inhibition (K-ras-NRK cells [2]): Absence of the cell division inhibitory activity
distribution of DNA quantity in cells (K-ras-NRK cells [2]): distribution of the DNA quantity in the cells was identical with that of the control cells
change in cell morphology and growth habits (K-ras^ts-NRK cells [3]; 33° C., 0.3 μg/ml): the cells changed their morphology and growth habits to those of normal cells
change in cell morphology and growth habits (K-ras^ts-NRK cells [3]; 39° C.): the cell morphology and growth habits were the same as the K-ras^ts -NRK cells that had been incubated in the absence of III-121C
actin filaments / cell morphology (K-ras-NRK cells [4]): morphology of normal cells with longitudinally extending linear actin filaments
IC50 (NRK cells): 0.19 µg/mL (≈ 0.239 µM)
change in cell morphology and growth habits (N-ras-NIH 3T3 cells [5]): the cells changed their morphology and growth habits to those of normal NIH 3T3 cells, and became flat with an increased area of contact
IC50 (N-ras-NIH 3T3 cells [6]): 0.12 µg/mL (≈ 0.151 µM)
change in cell morphology (RSV^ts-NRK cells; 33° C.): changed their cell morphology to have a rounded appearance similar to the morphology of the normal NRK-49 cells
change in cell morphology (RSV^ts-NRK cells; 39° C.): changed their cell morphology to have a rounded appearance similar to the morphology of the normal NRK-49 cells
change in cell morphology and growth habits (K-ras-NRK cells [7]): the cells changed their morphology and growth habits to those of normal cells, and became flat with an increased area of contact
anti-ras activity (K-ras^ts-NRK cells [8]; 1 μg/ml, 33° C.): has an anti-ras activity
change in cell morphology (K-ras^ts-NRK cells [8]; 33° C., 1 μg/ml, after one day): the cells no longer grew atop the other and became flat
change in cell morphology and growth habits (K-ras^ts-NRK cells [8]; 33° C., 1 μg/ml, after two days): such change in the cell morphology and growth habits were even more significant
cell division inhibitory activity (K-ras^ts-NRK cells [8]; compared with microtubule inhibitors): free from the cell division inhibitory activity; also recorded: not associated with the cell division inhibitory action
actin filaments / cell morphology (K-ras-NIH 3T3 cells): morphology of normal cells with longitudinally extending linear actin filaments
